From US9765019B2, “Small-molecule-targeted protein degradation” (Brandeis University, priority 2011, dated 2017) come the findings set out here.

Each structure is given as a SMILES string. “Also recorded” adds a separate entry of the source. Residues, ends and D or L forms follow the SMILES beside them. *: point of attachment. Cbz = O=C(OCc1ccccc1)*

Assay [1] deals with T1, human glutathione-S-transferase α-1 (Homo sapiens, UniProt P08263).
T1 construct: HA (N); made in house; host or cells: Escherichia coli (pOXO4-α1 vector)
T1 sequence (P08263 1-222): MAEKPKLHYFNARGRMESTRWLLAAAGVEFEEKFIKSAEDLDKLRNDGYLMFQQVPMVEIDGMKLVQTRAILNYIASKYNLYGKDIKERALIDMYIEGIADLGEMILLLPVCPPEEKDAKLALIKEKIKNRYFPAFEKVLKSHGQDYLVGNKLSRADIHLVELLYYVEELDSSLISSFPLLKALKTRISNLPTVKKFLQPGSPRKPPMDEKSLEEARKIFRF
The assay is described as follows: Degradation of pre-inhibited GST-α-1 in cell lysates (Western blot). It counts as biochemical. Particulars: for Degradation of GST-α-1 in cell lysates: protein pre-treated with inhibitor, lysates from reticulocytes, HeLa, Cos and NIH 3T3 cells. The method, then: The gel was transferred onto a polyvinyldifluoride membrane in Towbin (3 g Tris/14.4 g glycine) buffer, 100V for 1.2 hours then 40V for 3 hours for 18% gels, and 100 V for 1.2 hours for 12% gels. The membrane was blocked with 3% non-fat milk in Tris buffered saline (100 mM Tris base, 500 mM NaCl, pH 7.6) for one hour, then directly added to a solution of anti HA-HRP conjugated antibody in 0.5% non-fat milk in Tris buffered saline with 0.05% tween-20 for 2 hours. Membrane was washed twice with Tris buffered saline with 0.05% Tween 20 for 10 minutes, then washed once with Tris buffered saline for 15 minutes. The residual buffer was removed then exposed to ECL Plus™ (GE healthcare) for 5 minutes. Membrane was visualized by exposure to film (HyBlot CL, Denville Scientific). For in cell degradation assays, the membrane was cut in half (at approximately 40 kiloDaltons) and the lower molecular weight portion was probed and visualized with anti-GAPDH-HRP, protocol same as for anti-HA except Tris buffered saline contained 150 mM NaCl, not 500 mM. The higher molecular weight portion of the membrane was probed and visualized with anti-HA-HRP.
Human glutathione-S-transferase α-1 bearing an N-terminal HA tag was recombinantly expressed in Escherichia coli using the pOXO4-α1 vector. This was purified using glutathione affinity chromatography (GST-Bind™, Novagen). Escherichia coli dihydrofolate reductase bearing an N-terminal (His)6 tag and a C-terminal HA tag was recombinantly expressed in Escherichia coli using a pET28a vector. This was purified using Ni-NTA resin (Qiagen).
The cells were then serum starved for 2 days in the case of Cos and HeLa cells and 1 day in the case of NIH3T3 cells. The cells were washed with phosphate buffered saline and then trypsinized. Cells were collected, and an equal volume of complete medium was added. Cells were pelleted by centrifugation and the supernatant was aspirated. The cell pellet was washed three times with phosphate buffered saline. Cell pellets were stored at −80° C. until required. Cells were thawed on ice and maintained at 4° C. until required for the assay. […] The cells were lysed in a Dounce homogenizer (10 strokes), and then centrifuged at 14000 rpm for 30 minutes. The clarified lysate was normalized to an optimized concentration of 1 mg/mL (Bradford assay, Biorad®, as per manufacturer's instructions, using immunoglobulin as a standard) with lysis buffer. A 10×ATP regeneration buffer was made consisting of the following 1 mg/mL creatine kinase (Roche Diagnostics®), 600 mM creatine phosphate, 100 mM ATP, 200 mM Tris pH 8.0, 600 mM MgCl2. This was incubated at 37° C. for 30 minutes prior to use. Assays were conducted in […] total volume [including 1×ATP regeneration buffer, and 120 ng of HA-tagged protein (1 μL) preinhibited with 100 μM ethacrynic acid-derived inhibitor, or 1 μM trimethoprim-derived inhibitor] in 250 μL PCR tubes. Prior to assay 50 μL Chill Out wax (Biorad®) was overlaid on the top of the vial. 15 μL aliquots were extracted and diluted into 6 μL of 5× reducing SDS PAGE loading buffer and immediately frozen by being placed into dry ice. These were stored at −80° C. until required. Samples were thawed at 100° C. and continued to be boiled for 5 minutes. The samples were then centrifuged at 14,000 rpm on a microcentrifuge for 30 minutes and loaded onto an 18% polyacrylamide SDS PAGE gel, and Western blotted as per Example 2.
Background: Immunoblotting shows a protein as a band on a membrane.

For assay [2], the system named is endogenous GST-π. The assay is described as follows: Degradation of endogenous GST-π in whole cells (immunoblot). It counts as cell-based. To be noted: two hours. The method, then: FIG. 12 depicts degradation of endogenous GST-π. Cells were incubated with EA-Boc3Arg for 2 hours. Degradation was monitored by immuno-blotting with anti-GST antibodies. EA=right bar; EA-Boc3-Arg=left bar.
The ability of EA-Boc3Arg to degrade endogenous GST-π in the context of whole cells was also investigated. […] The Boc3Arg moiety can regulate endogenous protein levels in vivo.

For assay [3], the target named is T2, eDHFR-HA-GST-α1 (UniProt P08263+P0ABQ4).
T2 construct: expressed in transfected cells; host or cells: HeLa cells
T2 sequence (P0ABQ4+P08263 with tags, fused parts or gaps): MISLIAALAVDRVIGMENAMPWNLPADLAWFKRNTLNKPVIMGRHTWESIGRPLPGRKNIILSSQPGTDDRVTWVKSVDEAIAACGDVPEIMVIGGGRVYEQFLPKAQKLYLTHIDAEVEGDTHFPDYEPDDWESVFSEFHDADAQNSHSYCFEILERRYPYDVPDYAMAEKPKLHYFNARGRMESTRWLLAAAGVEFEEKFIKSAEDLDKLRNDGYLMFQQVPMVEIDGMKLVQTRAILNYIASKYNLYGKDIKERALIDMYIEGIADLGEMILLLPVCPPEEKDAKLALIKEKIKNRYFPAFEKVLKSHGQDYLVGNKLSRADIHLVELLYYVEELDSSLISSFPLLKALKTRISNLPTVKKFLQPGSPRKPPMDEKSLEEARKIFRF
The assay is described as follows: Degradation of eDHFR-HA-GST-α1 ectopically expressed in HeLa cells. It counts as cell-based. To be noted: for Degradation of eDHFR-HA-GST-α1: cycloheximide treated HeLa cells. An excerpt: FIG. 5 depicts degradation of GST-α1-HA in HeLa cell lysates and eDHFR-HA-GST in HeLa cells.

Assay [4] concerns proteasome. The assay is described as follows: Effect of proteasome inhibitors on Boc3Arg-induced degradation (lysates and whole HeLa cells). Particulars: GST-α-1 in cell lysates; eDHFR fusion proteins in HeLa cells.
Assay [5] deals with eDHFR-HA-GFP (Escherichia coli, UniProt P0ABQ4). Particulars: transfected HeLa cells. The method, then: FIG. 6 depicts degradation of eDHFR-HA in cell lysates and degradation of eDHFR fusion proteins in HeLa cells. (A) Degradation of eDHFR in HeLa cells lysates; (B) quantification of panel (A); (C) Global protein stability (GPS) assay. Cells co-express red fluorescent protein (RFP) and DHFR-HA-GFP from a bicistronic construct. Red and green fluorescence was measured by flow cytometry.
Protein degradation in whole cells was also assessed. eDHFR-HA-GFP was co-expressed with Discosoma sp. red fluorescent protein (RFP) in a bicistronic construct under control of a CMV promoter, with DHFR-HA-GFP translation occurring at the internal ribosome binding site. Thus a single mRNA is responsible for the production of both RFP and DHFR-HA-GFP, so that similar ratios of both proteins should be produced in all transfected cells. Changes in the relative intensities of red and green fluorescence are measured by flow cytometry, providing a facile and quantitative measure of the degradation of DHFR-HA-GFP in living cells and real time.
Cells were grown to 90% confluence in Dulbecco's Modified Minimal Essential Medium supplemented with 10% fetal bovine serum, 1×L-glutamine with no antibiotic in a 6 well plate. At this point the cells were serum starved, and then transfected using […] plasmid (expression driven by the cytomegalovirus promoter; gene coding for enhanced green fluorescent protein fused to the C-terminus of E. coli dihydrofolate reductase): 2 μL Transfectin™ (Biorad) per well. 48 hours after transfection, media was once again aspirated, and fresh serum free media was added. Cycloheximide (final concentration 100 μg/mL) was then added to the cells and after 5 minutes, 30 μM inhibitor was added. At each time point (45 minutes), media was aspirated, cells were trypsinized, centrifuged and washed three times with phosphate buffered saline. Cell pellets were flash frozen in dry ice, and then stored indefinitely at −80° C. The cells were thawed on ice, and then resuspended in lysis buffer (150 mM sucrose, 200 mM sodium phosphate, 43 mM MgCl2, pH 7.8, 0.1% triton X-100). Cells were lysed by two freeze/thaw cycles (−80° C. for 5 minutes, then 4° C. for 10 minutes). Lysate concentrations were normalized by dilution with lysis buffer such that they gave the same A595 when diluted into Bradford assay dye (Biorad).

With `CC(C)(C)OC(=O)N=C(NCCCC(NC(=O)OC(C)(C)C)C(=O)NCCCCCCSc1ccc([N+](=O)[O-])c2nonc12)NC(=O)OC(C)(C)C` (centres unmarked) [Fur-Boc3Arg, 5-(2,3-Di-tert-butoxycarbonylguanidino)-2-(tert-butoxycarbonylamino)-N-(6-(7-nitrobenzo[c][1,2,5]oxadiazol-4-ylthio)hexyl)pentan amide], the “Degradation of Fur-Boc3Arg-modified GST-α-1” value in assay [1] (NIH 3T3 cell lysates) is given as “readily degraded; also recorded: induces the degradation”.

For the compound `C=C(CC)C(=O)c1ccc(OCC(=O)NCCCCCCNC(=O)C(CCCNC(=NC(=O)OC(C)(C)C)NC(=O)OC(C)(C)C)NC(=O)OC(C)(C)C)c(Cl)c1Cl` (centres unmarked) [EA-Boc3Arg, N-(6-(2-(2,3-Dichloro-4-(2-methylenebutanoyl)phenoxy)acetamido)hexyl)-5-(2,3-di-t-butoxycarbonylguanidino)-2-(t-butoxycarbonylamino)pentanamide], the “Degradation of GST-α-1 in cell lysates” value in assay [1] is reported as “Degradation was observed”; in assay [1] (listed as 1), “promotes the degradation”. The “depletion in the GST-π signal” value in assay [2] was determined as 30%. The “Degradation of eDHFR-HA-GST-α1” value in assay [3] is given as “can cause degradation”.

Regarding `C=C(CC)C(=O)c1ccc(OCC(=O)NCCCCCCNC(=O)C(CCCNC(=N)NS(=O)(=O)c2ccc(C)cc2)NOC(=O)Cc2ccccc2)c(Cl)c1Cl` (centres unmarked) [Compound 2, N-(6-(2-(2,3-Dichloro-4-(2-methylenebutanoyl)phenoxy)acetamido)hexyl)-2-(benzylcarbonyloxyamino)-5-(3-tosylguanidino)pentanamide], the “Degradation of GST-α-1 in cell lysates” value in assay [1] was “functional degradation tag”.

`CC(=O)N[C@@H](CSC(=O)[C@]1([C@@H](O)C(C)C)NC(=O)[C@H](C)[C@@H]1O)C(=O)O` [lactacystin]: the “Effect on Boc3Arg-induced degradation” value in assay [4] is on record as “block”.

As for `CC(C)C[C@H](NC(=O)[C@H](Cc1ccccc1)NC(=O)c1cnccn1)B(O)O` [bortezomib], the “Effect on degradation of eDHFR-HA-GFP” value in assay [5] was “slower”. In assay [3] (cycloheximide and non-cycloheximide treated HeLa cells), the “Effect on degradation of eDHFR-HA-GST-α1 by EA-Boc3Arg” value is given as “retards degradation”. The “Effect on Boc3Arg-induced degradation” value in assay [4] is on record as “block; also recorded: prevent degradation”.

Regarding `C=C(CC)C(=O)c1ccc(OCC(=O)O)c(Cl)c1Cl` [EA, ethacrynic acid, reference compound], in assay [1], the “Degradation of GST-α-1 in cell lysates” value was “No degradation was observed”. Also, in assay [3], the “Degradation of eDHFR-HA-GST-α1” value was “does not”.

`Cc1cc(C(=O)CN2CCCC2)c(C)n1-c1ccc(F)cc1` [PU1, reference compound]: the “Effect on degradation of eDHFR-HA-GFP” value in assay [5] is “slower”.

On to `CC(C)C[C@@H](C=O)NC(=O)[C@H](CC(C)C)NC(=O)[C@H](CC(C)C)NC(=O)OCc1ccccc1` [MG 132] (Cbz-Leu-Leu-Leu-aldehyde), for which the “Effect on Boc3Arg-induced degradation” value in assay [4] is listed as “block; also recorded: prevent degradation”.
